The text below walks through data of article PMC8443589, “Modelling human liver fibrosis in the context of non-alcoholic steatohepatitis using a microphysiological system” (Communications Biology, 2021).

The term Cmax denotes the peak of the concentration-time curve. For orientation: fraction unbound means free concentration divided by total concentration. Low values mean extensive binding, high ones weak binding.

“And” between values parts separate entries of the source, which are not always exact repeats. Identical values can stand only once. A value given as a limit tells only on which side of the number the result lay.

Series [1] relates to liver MPS NASH model + TGFβ (PHH, KC and HSC co-cultures, high fat). The series is described as follows: Fibrosis-associated soluble biomarkers (TIMP-1, pro-collagen 1) in liver MPS NASH model with TGFβ dosed with OCA or ELF (Fig 6b). The note with it: for Pro-collagen 1 / TIMP-1: NASH + TGF, individual replicates. In kind it is cell-based, human. The source says: The systems biology approach identified TGFβ to be a key driver in creating a more advanced NASH phenotype in the MPS model, with enhanced fibrotic markers and reduced liver function. […] Therefore, we explored how effective pharmacological intervention would be for NASH microtissues with high NPC numbers supplemented with TGFβ and exposed them to varying concentrations of OCA and ELF QD as previously described (Supp. Fig. 6a). […] OCA had the greatest effect on IL-1Rα whereas ELF had the greatest effect on MCP-1 reflecting the fact that while both candidate drugs have anti-inflammatory properties, but their mechanisms of action are different. […] Finally, we used our quantitative fibrosis imaging assay to assess the effect of each candidate drug on collagen-1 deposition and α-SMA expression (Fig. 6c). […] Both candidate drugs caused a significant reduction in collagen-1 deposition and α-SMA expression, with the highest concentrations of OCA and ELF causing an 80% reduction in α-SMA expression and a 75% reduction in collagen-1 deposition (Fig. 6c).
Fig. 6 Using enhanced liver MPS NASH model with TGFβ, Obeticholic acid and Elafibranor modulate disease phenotype to a greater extent than in standard NASH model. PHH, KC and HSC co-cultures were cultured in the MPS platform under high-fat conditions and dosed with varying concentrations of Obeticholic acid (OCA) and Elafibranor (ELF) QD or vehicle control for 10 days, following an initial 4-day pre-culture phase. Throughout the compound dosing period TGFβ was also dosed onto all microtissues (NASH only vehicle control samples were also included in the study for comparison, which were not treated with TGFβ or dosed with any compound). a The secreted cytokine profile from treated liver microtissues was compared to determine the effects of each compound on the inflammatory profile of the liver with samples analysed at day 8 and 14 of the culture. Data were normalised by Z-transformation to allow comparison of all analytes (white = undetected). b The expression of fibrosis-associated biomarkers was analysed on day 14 media samples and compared to NASH + TGFβ control samples. c Liver microtissues were stained for collagen-type I, α-SMA, nuclei (DAPI), phalloidin (green) and imaged by confocal microscopy. Representative images are shown and scale bars 200 µm. Staining of microtissues was quantified by measuring total fluorescence intensity throughout individual microtissues, each data point represents an average of all microtissues per MPS culture (min 8, max 20). All datapoints shown with error bars highlighting means ± SD, all data from a minimum of three independent cultures: all comparisons were made to NASH + TGFβ control samples.
Soluble biomarkers in cell culture medium from the MPS were analysed by enzyme-linked immunosorbent assay (ELISA); IL-6 was measured by Human IL-6 DuoSet ELISA (R&D Systems); MCP-1 was measured by Human CCL2/MCP-1 DuoSet ELISA (R&D Systems); pro-collagen 1 was measured by Human Pro-Collagen I α1 DuoSet (R&D Systems); TIMP-1 was measured by Human TIMP-1 Quantikine ELISA Kit (R&D Systems); Fibronectin was measured by Human Fibronectin DuoSet ELISA (R&D Systems); YKL-40 was measured by Human Chitinase 3-like 1 Quantikine ELISA Kit (R&D Systems); Albumin secretion was measured by Human Albumin AssayMax™ ELISA kit (Assay Pro, St. Charles, MO). For all assays, the manufacturer’s protocol was followed.
Liver microtissues were cultured for 4 days in HEP-FAT medium, before dosing with obeticholic acid or elafibranor. Both compounds were dissolved in DMSO, diluted in cell culture medium (final DMSO concentration ≤1%) and added to microtissues during a full medium change every two days and in addition on the intervening days compounds were spiked into the media to increase drug concentration back to desired concentrations. Cultures were maintained in the presence of the compound, for a total of 10 days in the presence or absence of TGFβ.

For series [2] the following is noted: clinical dose, cited from earlier work; for Cmax: read-out: Plasma Cmax.
Series [3] can be described thus: Protein binding in HEP-Fat cell culture media by rapid equilibrium dialysis. The note with it: for fraction unbound: HEP-Fat cell culture media, HEP-FAT media, rapid-equilibrium dialysis. In kind it is in vitro ADME. On the procedure: Despite many on-going clinical trials, there is still no approved treatment for NASH, but emerging data provide confidence that NASH is a pharmacologically responsive disease. […] First, we set out to determine an optimal dosing strategy for each of the treatments based on an assessment of their physicochemical properties and pharmacokinetic behaviour within the MPS device (Table 1). Non-specific binding to the MPS device was determined after a 72 h incubation with each candidate drug at 1 μM (Table 1). Both candidate drugs were calculated to have less than 0.1% loss as a consequence of non-specific binding to the MPS device (Table 1). […] Because the hepatocytes within the MPS device are metabolically competent, we evaluated the half-life for each candidate drug in NASH microtissues.
To determine the metabolic turnover of obeticholic acid and elafibranor in the MPS platform, both compounds were incubated with liver microtissues for 48 h starting at 1 µM and media samples taken at regular intervals (AdooQ Bioscience, UK). The presence of each compound in the cell culture medium was quantified by liquid chromatography-tandem mass spectrometry (LC-MS/MS). Samples were separated using a Waters Acquity UPLC system with an ACE Excel C18-AR column and analysed on a Waters TQ-S Micro mass spectrometer against quantitative standard curves. Both compounds were also assessed for protein binding in HEP-Fat media using rapid equilibrium dialysis (RED) and quantified using the same LC-MS/MS methodology.
For orientation: In equilibrium dialysis only unbound substance equilibrates across the membrane.

On to `CC[C@H]1[C@@H](O)[C@@H]2[C@H](CC[C@]3(C)[C@@H]([C@H](C)CCC(=O)O)CC[C@@H]23)[C@@]2(C)CC[C@@H](O)C[C@@H]12` [Obeticholic acid], for which, in series [1] (0.25 uM, listed as OCA), the “Pro-collagen 1” value was 444.17 pg/day and 318.9 pg/day and 467.42 pg/day; the TIMP-1 was 197.88 pg/day and 287.39 pg/day and 303.89 pg/day. In series [1] (5 uM, listed as OCA), the “Pro-collagen 1” value was 576.99 pg/day and 525.8 pg/day and 497.39 pg/day; the TIMP-1 is 311.28 pg/day and 328.19 pg/day and 368.24 pg/day. In series [1] (12.5 uM, listed as OCA), the “Pro-collagen 1” value is 448.27 pg/day and 351.02 pg/day and 505.76 pg/day; the TIMP-1 is 365.14 pg/day and 327.97 pg/day and 326.64 pg/day. Also, in series [2], the “liver Cmax” value is 12.5 µM and the Cmax is 0.5 µM. Moreover, in series [3], the fraction unbound was less than 0.01 and the “Protein binding within the fat culture medium” value was “highly protein-bound”.

In the case of `CSc1ccc(C(=O)/C=C/c2cc(C)c(OC(C)(C)C(=O)O)c(C)c2)cc1` [Elafibranor], in series [1] (1.3 uM, listed as ELF), the “Pro-collagen 1” value is 415.15 pg/day and 440.97 pg/day and 422.37 pg/day; the TIMP-1 is 239.08 pg/day and 252.67 pg/day and 220.1 pg/day. In addition, in series [1] (13 uM, listed as ELF), the “Pro-collagen 1” value was 371.17 pg/day and 444.41 pg/day and 309.29 pg/day; the TIMP-1 is 191.73 pg/day and 205.16 pg/day and 212.17 pg/day. Moreover, in series [1] (65 uM, listed as ELF), the “Pro-collagen 1” value was 282.32 pg/day and 426.16 pg/day and 245.63 pg/day; the TIMP-1 was 278.05 pg/day and 246.83 pg/day and 169.84 pg/day. Further, in series [1] (NASH + TGFβ, day 14 media), the “soluble biomarkers TIMP-1 and pro-collagen 1” value was “reduced by ELF treatment”. Also, the Cmax in series [2] was 13 µM. In addition, in series [3], the fraction unbound was 0.02 and the “Protein binding within the fat culture medium” value is reported as “highly protein-bound”.
